From patent publication US8338598B2, “Herbicidal pyrido[2,3-B]pyrazines and their use as herbicides” (Syngenta Limited, priority 2008, dated 2012)

Columns and labels:
Assay type in all cases: in vivo
Amaranthus retroflexus [1] = assay: Example B1 herbicidal action, post-emergence, seed trays in climatic chamber; conditions: 1000 g/ha, evaluated after 9 days, 10=total damage to plant, 0=no damage to plant
Description: (§1) Seeds of a variety of test species were sown in sterilised standard soil in seed trays each having 96 cells. After cultivation for 8 to 9 days cultivation (post-emergence) under controlled conditions in a climatic chamber (cultivation at 23/17° C., day/night; 13 hours light; 50-60% humidity), the plants were treated with an aqueous spray solution of 1000 mg/l of the active ingredient dissolved in 10% DMSO (dimethyl sulfoxide, CAS RN 67-68-5) as a solvent, equivalent to 1000 g/ha. The plants were grown in the climatic chamber after application at (24/19° C., day/night; 13 hours light; 50-60% humidity) and watered twice daily. After 9 days until the test was evaluated (10=total damage to plant, 0=no damage to plant)

Solanum nigrum [2] = assay: as above; conditions: 1000 g/ha, evaluated after 9 days, 10=total damage to plant, 0=no damage to plant
Description: as §1

Stellaria media = assay: as above; conditions: 1000 g/ha, evaluated after 9 days, 10=total damage to plant, 0=no damage to plant
Description: as §1

Nasturtium officinale = assay: as above; conditions: 1000 g/ha, evaluated after 9 days, 10=total damage to plant, 0=no damage to plant
Description: as §1

Setaria faberi [3] = assay: Example B2 herbicidal action, post-emergence, pots in glasshouse; conditions: evaluated after 13 days, 10=total damage to plant, 0=no damage to plant
Description: (§2) Seeds of a variety of test species were sown in standard soil in pots. After cultivation for one day (pre-emergence) or after 8 days cultivation (post-emergence) under controlled conditions in a glasshouse (at 24/16° C., day/night; 14 hours light; 65% humidity), the plants were sprayed with an aqueous spray solution derived from the formulation of the technical active ingredient in acetone/water (50:50) solution containing 0.5% Tween 20 (polyoxyethelyene sorbitan monolaurate, CAS RN 9005-64-5). The test plants were then grown in a glasshouse under controlled conditions in a glasshouse (at 24/16° C., day/night; 14 hours light; 65% humidity) and watered twice daily. After 13 days, the test was evaluated (10=total damage to plant; 0=no damage to plant).

Amaranthus retroflexus [4] = assay: as above; conditions: evaluated after 13 days, 10=total damage to plant, 0=no damage to plant
Description: as §2

Ipomea hederaceae [5] = assay: as above; conditions: evaluated after 13 days, 10=total damage to plant, 0=no damage to plant
Description: as §2

Solanum nigrum [6] = assay: as above; conditions: evaluated after 13 days, 10=total damage to plant, 0=no damage to plant
Description: as §2

Echinochloa crus-galli [7] = assay: as above; conditions: evaluated after 13 days, 10=total damage to plant, 0=no damage to plant
Description: as §2

Setaria faberi [8] = assay: Example B2 herbicidal action, pre-emergence, pots in glasshouse; conditions: evaluated after 13 days, 10=total damage to plant, 0=no damage to plant
Description: as §2

Amaranthus retroflexus [9] = assay: as above; conditions: evaluated after 13 days, 10=total damage to plant, 0=no damage to plant
Description: as §2

Ipomea hederaceae [10] = assay: as above; conditions: evaluated after 13 days, 10=total damage to plant, 0=no damage to plant
Description: as §2

Solanum nigrum [11] = assay: as above; conditions: evaluated after 13 days, 10=total damage to plant, 0=no damage to plant
Description: as §2

Echinochloa crus-galli [12] = assay: as above; conditions: evaluated after 13 days, 10=total damage to plant, 0=no damage to plant
Description: as §2

Compound	AMARE, damage to plant (Amaranthus retroflexus [1])	SOLNI, damage to plant (Solanum nigrum [2])	STEME, damage to plant (Stellaria media)	NAAOF, damage to plant (Nasturtium officinale)	SETFA, damage to plant (Setaria faberi [3]; 1000 g/ha)	AMARE, damage to plant (Amaranthus retroflexus [4]; 1000 g/ha)	IPOHE, damage to plant (Ipomea hederaceae [5]; 1000 g/ha)	SOLNI, damage to plant (Solanum nigrum [6]; 1000 g/ha)	ECHCG, damage to plant (Echinochloa crus-galli [7]; 1000 g/ha)	SETFA, damage to plant (Setaria faberi [8]; 1000 g/ha)	AMARE, damage to plant (Amaranthus retroflexus [9]; 1000 g/ha)	IPOHE, damage to plant (Ipomea hederaceae [10]; 1000 g/ha)	SOLNI, damage to plant (Solanum nigrum [11]; 1000 g/ha)	ECHCG, damage to plant (Echinochloa crus-galli [12]; 1000 g/ha)	other results
CCOC(=O)Oc1c(-c2ncc(Cl)cc2Cl)c(=O)n(C)c2nccnc12 [Compound A2, Carbonic acid 7-(3,5-dichloro-pyrid-2-yl)-5-methyl-6-oxo-5,6-dihydro-pyrido-[2,3-b]pyrazin-8-yl ester ethyl ester]	0	0	5	5	–	–	–	–	–	–	–	–	–	–	–
CCn1c(=O)c(-c2ncc(Cl)cc2Cl)c(OC(=O)C(C)C)c2nccnc21 [Compound A6, isobutyric acid 7-(3,5-dichloro-pyrid-2-yl)-5-ethyl-6-oxo-5,6-dihydro-pyrido[2,3-b]pyrazin-8-yl ester]	2	0	3	5	–	–	–	–	–	–	–	–	–	–	–
CC(C)C(=O)Oc1c(-c2ncc(Cl)cc2Cl)c(=O)n(C)c2nccnc12 [Compound A7, Isobutyric acid 7-(3,5-dichloro-pyrid-2-yl)-5-methyl-6-oxo-5,6-dihydro-pyrido[2,3-b]pyrazin-8-yl ester]	7	0	7	7	–	–	–	–	–	–	–	–	–	–	–
CC(C)(C)C(=O)Oc1c(-c2ccc(Cl)nc2Cl)c(=O)n(CC(F)F)c2nccnc12 [Compound A16, 2,2-dimethyl-propionic acid 7-(2,6-dichloro-pyrid-3-yl)-5-(2,2-difluoro-ethyl)-6-oxo-5,6-dihydro-pyrido[2,3-b]pyrazin-8-yl ester]	–	–	–	–	6	10	7	9	6	0	0	2	5	2	–
CC(C)(C)C(=O)Oc1c(-c2c(Cl)ccnc2Cl)c(=O)n(CC(F)F)c2nccnc12 [Compound A18, 2,2-Dimethyl-propionic acid 7-(2,4-dichloro-pyrid-3-yl)-5-(2,2-difluoro-ethyl)-6-oxo-5,6-dihydro-pyrido[2,3-b]pyrazin-8-yl ester]	–	–	–	–	7	10	9	9	7	5	6	6	9	7	–
O=c1c(-c2cnc(Cl)cc2Cl)c(O)c2nccnc2n1CC(F)F [Compound A19, 7-(4,6-Dichloro-pyrid-3-yl)-5-(2,2-difluoro-ethyl)-8-hydroxy-5H-pyrido[2,3-b]pyrazin-6-one]	–	–	–	–	4	10	8	10	6	0	7	1	0	5	–
CC(C)(C)C(=O)Oc1c(-c2cnc(Cl)cc2Cl)c(=O)n(CC(F)F)c2nccnc12 [Compound A20, 2,2-Dimethyl-propionic acid 7-(4,6-dichloro-pyrid-3-yl)-5-(2,2-difluoro-ethyl)-6-oxo-5,6-dihydro-pyrido[2,3-b]pyrazin-8-yl ester]	–	–	–	–	–	–	–	–	–	–	–	–	–	–	SETFA, damage to plant (Setaria faberi [3]; 250 g/ha): 2; AMARE, damage to plant (Amaranthus retroflexus [4]; 250 g/ha): 10; IPOHE, damage to plant (Ipomea hederaceae [5]; 250 g/ha): 10; SOLNI, damage to plant (Solanum nigrum [6]; 250 g/ha): 10; ECHCG, damage to plant (Echinochloa crus-galli [7]; 250 g/ha): 7; SETFA, damage to plant (Setaria faberi [8]; 250 g/ha): 0; AMARE, damage to plant (Amaranthus retroflexus [9]; 250 g/ha): 1; IPOHE, damage to plant (Ipomea hederaceae [10]; 250 g/ha): 0; SOLNI, damage to plant (Solanum nigrum [11]; 250 g/ha): 1; ECHCG, damage to plant (Echinochloa crus-galli [12]; 250 g/ha): 3
O=c1c(-c2cc(Cl)ncc2Cl)c(O)c2nccnc2n1CC(F)F [Compound A21, 7-(2,5-Dichloro-pyrid-4-yl)-5-(2,2-difluoro-ethyl)-8-hydroxy-5H-pyrido[2,3-b]pyrazin-6-one]	–	–	–	–	7	9	7	8	7	2	2	0	0	0	–
